Patent publication US20260062422A1 (Halda Therapeutics OpCo, Inc., priority 2022, published 2026)

Assays:
VCaP cells = assay: Cellular growth inhibition assay for VCaP cells, CellTiter-Glo; type: cell-based, human; settings: 72 hours treatment, CellTiter-Glo 2.0
Procedure, shortened: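 GI50 values come from four-parameter curve fits of luminescence data normalized to a zero baseline. Compound, in medium with 0.5% DMSO, was added one day after plating and left for 72 h before CellTiter-Glo 2.0 addition.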

[1] = system: T-Rex 293 cell line SC3 cells having increased expression of androgen receptor protein due to exposure to doxycycline; assay: Cellular growth inhibition, T-Rex 293 SC3 cells with doxycycline (androgen receptor induced), CellTiter-Glo; type: cell-based; settings: T-Rex 293 SC3 cells with 10 ng/mL doxycycline (increased androgen receptor expression)
Procedure, shortened: (§1)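 Cells of clone SC3 are seeded in charcoal-dextran-stripped serum medium with or without 10 ng/mL doxycycline to induce wild-type androgen receptor. After 24 h, serial compound dilutions are added at 0.5% DMSO and incubated 72 h at 37 °C. CellTiter-Glo 2.0 measures viability, giving GI50 values.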

[2] = system: T-Rex 293 cell line SC3 cells lacking increased expression of androgen receptor protein; assay: Cellular growth inhibition, T-Rex 293 SC3 cells without doxycycline, CellTiter-Glo; type: cell-based; settings: T-Rex 293 SC3 cells not exposed to doxycycline, CellTiter-Glo 2.0
Procedure, shortened: as §1

T47D cells = assay: Cellular growth inhibition assay for T47D cells, CellTiter-Glo; type: cell-based, human; settings: 72 hours treatment, CellTiter-Glo 2.0 cell viability
Procedure, shortened: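 Cells are plated at 3000/well and allowed 24 h before treatment. Test compound in medium containing 0.5% DMSO is then added, with DMSO-only wells as negative control, and plates are incubated 72 h at 37 °C. ATP luminescence (CellTiter-Glo 2.0) is then fitted to four parameters to derive GI50.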

Structure (SMILES)	GI50 (VCaP cells; Homo sapiens, VCaP, 72 h)	GI50 (T47D cells; Homo sapiens, T47D, 72 h)	GI50 (VCaP cells)	GI50 (T47D cells)	GI50 ([1]; 72 h)	GI50 ([2]; 72 h)	GI50 ([1]; 72 hours)	GI50 ([2]; 72 hours)
Cc1sc2c(c1C)C(c1ccc(CC[C@H]3CC[C@@]4(CCCN(c5ncc(C(=O)N[C@H]6C(C)(C)[C@H](Oc7ccc(C#N)c(Cl)c7)C6(C)C)cn5)C4)C3)cc1)=N[C@@H](Cc1ncco1)c1nnc(C)n1-2 [Compound I-248]	> 3000 nM	> 3000 nM			> 3000 nM	> 3000 nM		
Cc1noc2c1-c1ccccc1C(c1ccc(OC3CC4(C3)CN(c3ncc(C(=O)N[C@H]5C(C)(C)[C@H](Oc6ccc(C#N)c(Cl)c6)C5(C)C)cn3)CCO4)cc1)=N[C@H]2Cc1ncco1 [Compound I-221, N-[3-(3-chloro-4-cyano-phenoxy)-2,2,4,4-tetramethyl-cyclobutyl]-2-[2-[4-[(4S)-1-methyl-4-(oxazol-2-ylmethyl)-4H-isoxazolo[5,4-d][2]benzazepin-6-yl]phenoxy]-5-oxa-8-azaspiro[3.5]nonan-8-yl]pyrimidine-5-carboxamide]	> 3000 nM	> 3000 nM			< 500 nM	> 3000 nM		
Cc1sc2c(c1C)C(c1ccc(CN3CC(=O)N4CC(c5ncc(C(=O)N[C@H]6C(C)(C)[C@H](Oc7ccc(C#N)c(Cl)c7)C6(C)C)cn5)C[C@H]4C3=O)cc1)=N[C@@H](Cc1ncco1)c1nnc(C)n1-2 (stereo partly drawn) [Compound I-385]	1500 to 3000 nM	> 3000 nM			> 3000 nM	> 3000 nM		
Cc1sc2c(c1C)C(c1ccc(C[C@H]3C[C@@]4(CCCN(c5ncc(C(=O)N[C@H]6C(C)(C)[C@H](Oc7ccc(C#N)c(Cl)c7)C6(C)C)cn5)C4)C3)cc1)=N[C@@H](Cc1ncco1)c1nnc(C)n1-2 [Compound I-156]	> 3000 nM	> 3000 nM			< 500 nM	> 3000 nM		
Cc1sc2c(c1C)C(c1ccc(C(=O)N3CCC(C(=O)c4ncc(C(=O)N[C@H]5C(C)(C)[C@H](Oc6ccc(C#N)c(Cl)c6)C5(C)C)cn4)CC3)cc1)=N[C@@H](Cc1ncco1)c1nnc(C)n1-2 [Compound I-382]			> 3000 nM	> 3000 nM			< 500 nM	> 3000 nM
Cc1sc2c(c1C)C(c1ccc(C#C[C@H]3C[C@]4(CCCN(c5ncc(C(=O)N[C@H]6C(C)(C)[C@H](Oc7ccc(C#N)c(Cl)c7)C6(C)C)cn5)C4)C3)cc1)=N[C@@H](Cc1ncco1)c1nnc(C)n1-2 [Compound I-269]	1500 to 3000 nM	500 to 1500 nM			< 500 nM	> 3000 nM		
Cc1sc2c(c1C)C(c1ccc(CC[C@H]3C[C@]4(CCCN(c5ncc(C(=O)N[C@H]6C(C)(C)[C@H](Oc7ccc(C#N)c(Cl)c7)C6(C)C)cn5)C4)C3)cc1)=N[C@@H](Cc1ncco1)c1nnc(C)n1-2 [Compound I-239]	> 3000 nM	> 3000 nM			> 3000 nM	> 3000 nM		
Cc1sc2c(c1C)C(c1ccc(OC3CC4(CCN(c5ncc(C(=O)N[C@H]6C(C)(C)[C@H](Oc7ccc(C#N)c(Cl)c7)C6(C)C)cn5)CC4)C3)c(F)c1)=N[C@@H](Cc1ncco1)c1nnc(C)n1-2 [Compound I-456]	1500 to 3000 nM	> 3000 nM			< 500 nM	> 3000 nM		
CC[C@@H]1N=C(c2ccc(CC3CCC4(C3)CN(c3ncc(C(=O)N[C@H]5C(C)(C)[C@H](Oc6ccc(C#N)c(Cl)c6)C5(C)C)cn3)CCO4)cc2)c2c(sc(C)c2C)-n2c(C)nnc21 (stereo partly drawn) [Compound I-613]			< 500 nM	500 to 1500 nM			< 500 nM	> 3000 nM
Cc1sc2c(c1C)C(c1ccc(OC[C@@H]3CCCN(c4ncc(C(=O)N[C@H]5C(C)(C)[C@H](Oc6ccc(C#N)c(Cl)c6)C5(C)C)cn4)C3)cc1)=N[C@@H](C)c1nnc(C)n1-2 [Compound I-352]	< 500 nM	> 3000 nM			< 500 nM	> 3000 nM		

The next lines start with results.

GI50 (VCaP cells; Homo sapiens, VCaP, 72 h)	GI50 (T47D cells; Homo sapiens, T47D, 72 h)	GI50 (VCaP cells)	GI50 (T47D cells)	Structure (SMILES)	GI50 ([1]; 72 h)	GI50 ([2]; 72 h)	GI50 ([1]; 72 hours)	GI50 ([2]; 72 hours)
< 500 nM	< 500 nM			COCC[C@@H]1N=C(c2ccc(CC3CC4(CCN(c5ccc(C(=O)N[C@H]6C(C)(C)[C@H](Oc7ccc(C#N)c(Cl)c7)C6(C)C)cn5)CC4)C3)cc2)c2c(sc(C)c2C)-n2c(C)nnc21 [Compound I-599]	< 500 nM	> 3000 nM		
< 500 nM	< 500 nM			Cc1sc2c(c1C)C(c1ccc(C[C@H]3C[C@H]([C@@H]4CCCN(c5ncc(C(=O)N[C@H]6C(C)(C)[C@H](Oc7ccc(C#N)c(Cl)c7)C6(C)C)cn5)C4)C3)cc1)=N[C@@H](Cc1ncco1)c1nnc(C)n1-2 [Compound I-162]	< 500 nM	< 500 nM		
< 500 nM	< 500 nM			Cc1sc2c(c1C)C(c1ccc(C#CCC3CCN(c4ncc(C(=O)N[C@H]5C(C)(C)[C@H](Oc6ccc(C#N)c(Cl)c6)C5(C)C)cn4)CC3)cc1)=N[C@@H](Cc1ncco1)c1nnc(C)n1-2 [Compound I-57]	< 500 nM	< 500 nM		
< 500 nM	500 to 1500 nM			Cc1sc2c(c1C)C(c1ccc(CC(=O)N3CCC(c4ncc(C(=O)N[C@H]5C(C)(C)[C@H](Oc6ccc(C#N)c(Cl)c6)C5(C)C)cn4)CC3)cc1)=N[C@H](Cc1ncco1)c1nnc(C)n1-2 [Compound I-370]	< 500 nM	> 3000 nM		
< 500 nM	< 500 nM			Cc1sc2c(c1C)C(c1ccc(N3CCC(C(=O)NCc4ncc(C(=O)N[C@H]5C(C)(C)[C@H](Oc6ccc(C#N)c(Cl)c6)C5(C)C)cn4)CC3)cc1)=N[C@@H](Cc1ncco1)c1nnc(C)n1-2 [Compound I-329]	< 500 nM	500 to 1500 nM		
< 500 nM	< 500 nM			COCC[C@@H]1N=C(c2ccc(CC3CC4(CCN(c5cnc(C(=O)N[C@H]6C(C)(C)[C@H](Oc7ccc(C#N)c(Cl)c7)C6(C)C)cn5)CC4)C3)cc2)c2c(sc(C)c2C)-n2c(C)nnc21 [Compound I-586]	< 500 nM	> 3000 nM		
< 500 nM	< 500 nM			Cc1sc2c(c1C)C(c1ccc(C3CC(N4CCN(c5ncc(C(=O)N[C@H]6C(C)(C)[C@H](Oc7ccc(C#N)c(Cl)c7)C6(C)C)cn5)CC4)C3)cc1)=N[C@@H](Cc1ncco1)c1nnc(C)n1-2 (stereo partly drawn) [Compound I-475]	< 500 nM	500 to 1500 nM		
< 500 nM	< 500 nM			Cc1sc2c(c1C)C(c1ccc(O[C@H]3CCC4(CCN(c5ncc(C(=O)N[C@H]6C(C)(C)[C@H](Oc7ccc(C#N)c(Cl)c7)C6(C)C)cn5)CC4)C3)cc1)=N[C@@H](Cc1ncco1)c1nnc(C)n1-2 [Compound I-173]	< 500 nM	> 3000 nM		
< 500 nM	500 to 1500 nM			[2H]C([2H])(c1ccc(C2=N[C@@H](Cc3ncco3)c3nnc(C)n3-c3sc(C)c(C)c32)cc1)N1CC[C@@]2(CCCN(c3ncc(C(=O)N[C@H]4C(C)(C)[C@H](Oc5ccc(C#N)c(Cl)c5)C4(C)C)cn3)C2)C1 [Compound I-433]	< 500 nM	< 500 nM		
< 500 nM	< 500 nM			Cc1sc2c(c1C)C(c1ccc(OC3CC4(CCN(c5ncc(C(=O)N[C@H]6C(C)(C)[C@H](Oc7ccc(C#N)c(Cl)c7)C6(C)C)cn5)CC4)C3)cc1)=NC1(CC1)c1nnc(C)n1-2 [Compound I-461]	< 500 nM	500 to 1500 nM		
< 500 nM	500 to 1500 nM			Cc1sc2c(c1C)C(c1ccc(CN(C)C(=O)CCc3ncc(C(=O)N[C@H]4C(C)(C)[C@H](Oc5ccc(C#N)c(Cl)c5)C4(C)C)cn3)cc1)=N[C@@H](Cc1ncco1)c1nnc(C)n1-2 [Compound I-317]	1500 to 3000 nM	> 3000 nM		
